In test [1] the test system is LNCaP cells. The experiment in a line: MTS cell proliferation assay, androgen-dependent LNCaP cells. The class given is cell-based, human. The following applies: 50 μM. On the procedure:
Cell proliferation assays were performed using the 3-(4,5-dimethylhiazol-2-yl)-5-(3-carboxymethoxyphenyl)-2-(4-sulfophenyl)-2H-tetrazolium Assay (MTS) according to the manufacturer's protocol, with minor modifications (Promega). LNCaP cells were plated in 96-well plates at a density of 3000 cells per well and incubated in RPMI medium containing 5% CSS for one day. On the following day, the DDC inhibitors, carbidopa (25 and 50 μM) and NSD-1015 (10 μM)±0.1 nM R1881 were added to each well in charcoal-stripped serum (CSS; Hyclone, VWR) RPMI media. The cells were harvested at days 0, 2, 4, 6 and 8, with a medium change every 3 days. Each time point was measured with 6 replicates.
(§1) Student's t-test (two-sample equal variance) was used to evaluate statistically significant differences. All calculated p-values were two-sided and those less than 0.05 were considered statistically significant.
On the technique in general: Tetrazolium dyes change colour on reduction, which living cells bring about.

For test [2], the system named is DU 145. Particulars: cited from earlier work.
For test [3], the system named is C4-2 cells. The test can be described thus: MTS cell proliferation assay, androgen-independent C4-2 cells. Format: cell-based, human. The following applies: 25 μM. The protocol: Cell proliferation assays were performed using the 3-(4,5-dimethylhiazol-2-yl)-5-(3-carboxymethoxyphenyl)-2-(4-sulfophenyl)-2H-tetrazolium Assay (MTS) according to the manufacturer's protocol, with minor modifications (Promega). C4-2 cells were plated in 96-well plates at a density of 750 cells per well in RPMI medium containing 5% CSS for 1 day. On the following day, the DDC inhibitors, carbidopa (25 μM) and NSD-1015 (10 μM)±0.1 nM R1881 were added to each well in charcoal-stripped serum (CSS; Hyclone, VWR) RPMI media. The cells were harvested at days 0, 2, 4, and 6, with a medium change every 3 days. Each time point was measured with 6 replicates.
as §1

Test [4] concerns LNCaP-DDC xenografts. The experiment in a line: LNCaP-DDC (DDC overexpressing) tumour xenografts with carbidopa treatment. Format: in vivo, mice. The following applies: 25 mg/kg intraperitoneally daily, Dox. On the procedure:
LNCaP-DDC and LNCaP-Vector control cells were inoculated subcutaneously (s.c.), after resuspension in 0.1 mL of Matrigel (Becton Dickinson Labware), into two flank regions (2.5×10^6 cells/site) of 6 to 8 week old male athymic nude mice (Harlan Sprague Dawley, Inc.) via a 27-gauge needle under halothane anesthesia. Tumour volume and serum PSA measurements (blood collected from the tail vein) were performed once per week after tumours became palpable. PSA levels were measured by ELISA (ClinPro International) and tumour size was calculated by the formula; length×width×depth×0.5236. Once serum PSA values reached 75-100 ng/mL, mice in both the LNCaP-DDC and LNCaP-Vector control groups were given Dox-treated water (200 μg/mL) and treated with or without carbidopa. Carbidopa was purchased from Sigma and dissolved in DMSO. The solution was diluted in PBS to a final concentration of 10% DMSO and sterilized through a 0.2 μm filter. Carbidopa solution was injected intraperitoneally into half of the mice (25 mg per kg of body weight) for the +carbidopa groups, while the remaining mice received vehicle injections consisting of 10% DMSO in PBS (−carbidopa groups). Injections were carried out daily for the duration of the experiment. […] PSA velocity and tumour growth rate differences were determined by one-way ANOVA and Tukey's multiple comparison test. […]

The test system of test [5] is C4-2 xenografts. The test can be described thus: Androgen-independent C4-2 tumour xenografts in pre-castrated mice. Format: in vivo. On the procedure:
Parental C4-2 cells were inoculated subcutaneously (s.c.), after resuspension in 0.1 mL of Matrigel (Becton Dickinson Labware), into two flank regions (2.5×10^6 cells/site) of 6 to 8 week old castrated (to ensure tumors will be androgen-independent) male athymic nude mice (Harlan Sprague Dawley, Inc.) via a 27-gauge needle under halothane anesthesia. Tumour volume and serum PSA measurements (blood collected from the tail vein) were performed once per week after tumours became palpable. PSA levels were measured by ELISA (ClinPro International) and tumour size was calculated by the formula; length×width×depth×0.5236. Once serum PSA values reached 75-100 ng/mL, mice were treated with or without carbidopa. Carbidopa was purchased from Sigma and dissolved in DMSO. The solution was diluted in PBS to a final concentration of 10% DMSO and sterilized through a 0.2 μm filter. Carbidopa solution was injected intraperitoneally into half of the mice (25 mg per kg of body weight) for the +carbidopa groups, while the remaining mice received vehicle injections consisting of 10% DMSO in PBS (−carbidopa groups). Injections were carried out daily for the duration of the experiment. Each animal group contained 2-3 mice. PSA measurements were used to calculate PSA velocity and volume measurements were used to determine the tumour growth rate for all groups with linear regression slope analysis (see Statistical Analysis below). PSA velocity was defined as the increase in PSA level (normalized to pre-treatment value set at 100%) divided by number of days that PSA was reliably measurable (21 days). […] All animal procedures were performed according to the guidelines of the Canadian Council of Animal Care and with appropriate institutional certification. C4-2 xenograft tumour volume and PSA values (−/+carbidopa) were used for linear regression slope analysis to determine PSA velocity and tumour growth rate with GraphPad Prism 4, version 4.03. PSA velocity and tumour growth rate differences were determined using the Student's t-test.

In test [6] the test system is neuroendocrine cancer cell lines. The following applies: including a carcinoid cancer and a small cell lung cancer cell line; cited from earlier work.
The subject of test [7] is pure neuroendocrine tumour. Particulars: in combination with other drugs; implanted prostate NE cancer cells; cited from earlier work.

Each structure is given as a SMILES string.

As for `C[C@@](Cc1ccc(O)c(O)c1)(NN)C(=O)O` [carbidopa, α-Methyl-dopahydrazine], the “reduction of number of cells relative to control non-treated cells” value in test [1] (day 8, absence of androgen) is 1.42 fold; in test [1] (day 8, presence of androgen (0.1 nM R1881)), 1.69 fold; in test [3] (day 6, absence of androgen), 1.58 fold; in test [3] (day 6, presence of androgen (0.1 nM R1881)), 1.80 fold. Further, the effect on proliferation entry in test [2] was “did not affect proliferation”. Moreover, the “PSA velocity (rate of PSA production)” value in test [4] (over 35 days, PSA normalized to pre-treatment 100%) is reported as 14.7±0.6; in test [5] (pre-castrated mice, 25 mg/kg i.p. daily, over 21 days), 4.7±2. Also, the tumour growth rate stood at 22.5±3 in test [4] (over 49 days, volume normalized to pre-treatment 100%) and 5.7±0.6 in test [5] (pre-castrated mice, 25 mg/kg i.p. daily, 21 days). In test [5] (21 days), the “reduction of tumour growth rate versus control” value turned out to be 2.1 fold. For the same molecule, the “decrease in PSA velocity versus control non-treated” value in test [5] (over 21 days) was 4.1 fold. In addition, the “lethality to cancer cell lines” value in test [6] was “lethal to several but not all tested neuroendocrine cancer cell lines”. In test [7], the “reduction of tumour growth” value was 40%.

(Values after patent publication US8324280B2, “Treatment of prostate cancer with DDC inhibitor” (The University of British Columbia, priority 2008, dated 2012).)
